From PubChem BioAssay AID1259407 (Chemical Carcinogenesis Research Information System (CCRIS), 2018)
Active and inactive are the calls of the source. The rule behind the calls is not given here.

Test system: CCRIS mutagenicity, Ames/micronucleus/aberration tests
Experiment: CCRIS mutagenicity studies
[1] = Test System: AMES SALMONELLA TYPHIMURIUM, Strain/Indicator: TA98, Metabolic Activation: NONE, Method: PREINCUBATION
[2] = Test System: AMES SALMONELLA TYPHIMURIUM, Strain/Indicator: TA98, Metabolic Activation: NONE, Method: STANDARD PLATE
[3] = Test System: AMES SALMONELLA TYPHIMURIUM, Strain/Indicator: TA98, Metabolic Activation: RAT, LIVER, S-9, AROCLOR 1254, Method: STANDARD PLATE
[4] = Test System: AMES SALMONELLA TYPHIMURIUM, Strain/Indicator: TA100, Metabolic Activation: NONE, Method: STANDARD PLATE
[5] = Test System: AMES SALMONELLA TYPHIMURIUM, Strain/Indicator: TA100, Metabolic Activation: RAT, LIVER, S-9, AROCLOR 1254, Method: STANDARD PLATE

Measured: mutagenic call

CCN
inactive: Test System: AMES SALMONELLA TYPHIMURIUM, Strain/Indicator: TA98, Metabolic Activation: HAMSTER, LIVER, S-9, AROCLOR 1254 (10%), Method: PREINCUBATION inactive; negative | [1] inactive; negative | Test System: AMES SALMONELLA TYPHIMURIUM, Strain/Indicator: TA98, Metabolic Activation: RAT, LIVER, S-9, AROCLOR 1254 (10%), Method: PREINCUBATION inactive; negative | Test System: AMES SALMONELLA TYPHIMURIUM, Strain/Indicator: TA100, Metabolic Activation: HAMSTER, LIVER, S-9, AROCLOR 1254 (10%), Method: PREINCUBATION inactive; negative | Test System: AMES SALMONELLA TYPHIMURIUM, Strain/Indicator: TA100, Metabolic Activation: NONE, Method: PREINCUBATION inactive; negative | Test System: AMES SALMONELLA TYPHIMURIUM, Strain/Indicator: TA100, Metabolic Activation: RAT, LIVER, S-9, AROCLOR 1254 (10%), Method: PREINCUBATION inactive; negative | Test System: AMES SALMONELLA TYPHIMURIUM, Strain/Indicator: TA1535, Metabolic Activation: HAMSTER, LIVER, S-9, AROCLOR 1254 (10%), Method: PREINCUBATION inactive; negative | Test System: AMES SALMONELLA TYPHIMURIUM, Strain/Indicator: TA1535, Metabolic Activation: NONE, Method: PREINCUBATION inactive; negative | Test System: AMES SALMONELLA TYPHIMURIUM, Strain/Indicator: TA1535, Metabolic Activation: RAT, LIVER, S-9, AROCLOR 1254 (10%), Method: PREINCUBATION inactive; negative | Test System: AMES SALMONELLA TYPHIMURIUM, Strain/Indicator: TA1537, Metabolic Activation: HAMSTER, LIVER, S-9, AROCLOR 1254 (10%), Method: PREINCUBATION inactive; negative | Test System: AMES SALMONELLA TYPHIMURIUM, Strain/Indicator: TA1537, Metabolic Activation: NONE, Method: PREINCUBATION inactive; negative | Test System: AMES SALMONELLA TYPHIMURIUM, Strain/Indicator: TA1537, Metabolic Activation: RAT, LIVER, S-9, AROCLOR 1254 (10%), Method: PREINCUBATION inactive; negative

CN1Cc2c(N)cccc2C(c2ccccc2)C1 (configuration not stated)
inactive: [2] inactive; negative | [3] inactive; negative | [4] inactive; negative | [5] inactive; negative | Test System: AMES SALMONELLA TYPHIMURIUM, Strain/Indicator: TA1535, Metabolic Activation: NONE, Method: STANDARD PLATE inactive; negative | Test System: AMES SALMONELLA TYPHIMURIUM, Strain/Indicator: TA1535, Metabolic Activation: RAT, LIVER, S-9, AROCLOR 1254, Method: STANDARD PLATE inactive; negative | Test System: AMES SALMONELLA TYPHIMURIUM, Strain/Indicator: TA1537, Metabolic Activation: NONE, Method: STANDARD PLATE inactive; negative | Test System: AMES SALMONELLA TYPHIMURIUM, Strain/Indicator: TA1537, Metabolic Activation: RAT, LIVER, S-9, AROCLOR 1254, Method: STANDARD PLATE inactive; negative

CC(C)(C)Cl
inactive: Test System: Mouse lymphoma, Strain/Indicator: L5178Y (tk+/tk-), Metabolic Activation: None, Method: Suspension/plate inactive; negative | Test System: Mouse lymphoma, Strain/Indicator: L5178Y (tk+/tk-), Metabolic Activation: Rat, Liver, S-9, Aroclor 1254, Method: Suspension/plate inactive; negative

Cc1nc2c3c(ccc4ccc(O)cc43)ccc2n1C
active: [3] active; positive

Cc1nc2cc(C)c3c(nc(N)n3C)c2nc1C
active: [3] active; positive

COc1cc2c(cc1O)CC1c3c(cc(OC)c(O)c3-2)CC[N+]1(C)C (configuration not stated)
inactive: Test System: AMES SALMONELLA TYPHIMURIUM, Strain/Indicator: TA100, Metabolic Activation: RAT, LIVER, S-9, PHENOBARBITAL AND BETA-NAPHTHOFLAVONE, Method: PREINCUBATION inactive; negative

O=C1c2ccccc2-c2cc([N+](=O)[O-])ccc21
inactive: [4] inactive; negative | [5] inactive; negative | Test System: AMES SALMONELLA TYPHIMURIUM, Strain/Indicator: TA7001, Metabolic Activation: NONE, Method: PREINCUBATION inactive; negative
active: Test System: AMES SALMONELLA TYPHIMURIUM, Strain/Indicator: TA98 (1,8-DNP6), Metabolic Activation: NONE, Method: PREINCUBATION active; positive | Test System: AMES SALMONELLA TYPHIMURIUM, Strain/Indicator: TA98(NR), Metabolic Activation: NONE, Method: PREINCUBATION active; positive | Test System: AMES SALMONELLA TYPHIMURIUM, Strain/Indicator: TA98(NR), Metabolic Activation: RAT LIVER S-9 (10%), Method: PREINCUBATION active; positive | Test System: AMES SALMONELLA TYPHIMURIUM, Strain/Indicator: TA98(NR), Metabolic Activation: RAT LIVER S-9, 3-METHYLCHOLANTHRENE (10%), Method: PREINCUBATION active; positive | Test System: AMES SALMONELLA TYPHIMURIUM, Strain/Indicator: TA98(NR), Metabolic Activation: RAT LIVER S-9, BETA-NAPHTHAFLAVONE (10%), Method: PREINCUBATION active; positive | Test System: AMES SALMONELLA TYPHIMURIUM, Strain/Indicator: TA98(NR), Metabolic Activation: RAT LIVER S-9, PCB (10%), Method: PREINCUBATION active; positive | Test System: AMES SALMONELLA TYPHIMURIUM, Strain/Indicator: TA98(NR), Metabolic Activation: RAT LIVER S-9, PHENOBARBITAL (10%), Method: PREINCUBATION active; positive | [1] active; positive | [2] active; positive | [3] active; positive | Test System: AMES SALMONELLA TYPHIMURIUM, Strain/Indicator: TA7002, Metabolic Activation: NONE, Method: PREINCUBATION active; positive | Test System: AMES SALMONELLA TYPHIMURIUM, Strain/Indicator: TA7003, Metabolic Activation: NONE, Method: PREINCUBATION active; positive | Test System: AMES SALMONELLA TYPHIMURIUM, Strain/Indicator: TA7004, Metabolic Activation: NONE, Method: PREINCUBATION active; positive | Test System: AMES SALMONELLA TYPHIMURIUM, Strain/Indicator: TA7005, Metabolic Activation: NONE, Method: PREINCUBATION active; positive | Test System: AMES SALMONELLA TYPHIMURIUM, Strain/Indicator: TA7006, Metabolic Activation: NONE, Method: PREINCUBATION active; positive

CCCOc1ccc(N)cc1N
active: Test System: AMES SALMONELLA TYPHIMURIUM, Strain/Indicator: TA97, Metabolic Activation: RAT, LIVER, S-9, AROCLOR 1254 (10%), Method: STANDARD PLATE active; positive | Test System: AMES SALMONELLA TYPHIMURIUM, Strain/Indicator: TA1537, Metabolic Activation: RAT, LIVER, S-9, AROCLOR 1254 (4 OR 10%), Method: STANDARD PLATE active; positive | Test System: AMES SALMONELLA TYPHIMURIUM, Strain/Indicator: TA1538, Metabolic Activation: RAT, LIVER, S-9, AROCLOR 1254 (4 OR 10%), Method: STANDARD PLATE active; positive
inactive: Test System: AMES SALMONELLA TYPHIMURIUM, Strain/Indicator: TA97, Metabolic Activation: RAT, LIVER, S-9, AROCLOR 1254 (4%), Method: STANDARD PLATE inactive; negative
